In patent US9624182B2, “Compounds as lysophosphatidic acid receptor antagonists” (Amira Pharmaceuticals, Inc., priority 2009, dated 2017):

Target: T1, human LPA1 (Homo sapiens, UniProt Q92633)
T1 construct: the full-length cDNA for human LPA1 was obtained by PCR of the reverse transcription reaction; expressed in transfected cells
Test: LPA1 calcium flux assay
Type: cell-based
Details: CHO cells expressing human LPA1, stimulated with 10 nM LPA; read-out: HLPA1 Ca Flux IC50
Method in brief: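 Antagonism measured as block of 10 nM LPA-evoked calcium rise in stable human LPA1-CHO cells. After overnight serum-free culture and 1 h dye loading at 37 °C (buffer with 0.3% fatty-acid-free albumin), compound was added for 30 min at room temperature. Titration curves gave IC50.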

T1 sequence (Q92633 whole entry): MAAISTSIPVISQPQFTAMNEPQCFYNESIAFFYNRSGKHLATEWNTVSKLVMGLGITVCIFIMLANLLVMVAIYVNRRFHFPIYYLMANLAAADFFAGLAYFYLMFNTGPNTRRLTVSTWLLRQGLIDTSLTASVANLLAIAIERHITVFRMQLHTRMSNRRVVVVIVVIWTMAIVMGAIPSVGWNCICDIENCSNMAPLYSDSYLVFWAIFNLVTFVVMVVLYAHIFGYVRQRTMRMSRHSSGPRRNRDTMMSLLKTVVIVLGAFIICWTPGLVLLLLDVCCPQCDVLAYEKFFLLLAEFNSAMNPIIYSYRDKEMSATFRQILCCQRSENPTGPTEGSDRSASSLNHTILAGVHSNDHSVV

Structure (SMILES) | IC50 [nM]
CCCC(O)c1c(C)noc1-c1ccc(-c2ccc(C3(C(=O)O)CC3)cc2)cc1 (stereo not drawn) [Compound 1-166, 1-{4′-[4-(1-Hydroxy-butyl)-3-methyl-isoxazol-5-yl]-biphenyl-4-yl}-cyclopropanecarboxylic acid] | 1000 to 50000
Cc1noc(-c2ccc(-c3ccc(CC(=O)O)cc3)cc2)c1CC(F)(F)CCc1ccccc1 [Compound 1-170, {4′-[4-(2,2-Difluoro-4-phenyl-butyl)-3-methyl-isoxazol-5-yl]-biphenyl-4-yl}-acetic acid] | < 300
CCC(C(=O)O)c1ccc(-c2ccc(-c3onc(C)c3C(O)CCCc3ccccc3C(F)(F)F)cc2)cc1 (stereo not drawn) [Compound 1-171, 2-(4′-{4-[1-Hydroxy-4-(2-trifluoromethyl-phenyl)-butyl]-3-methyl-isoxazol-5-yl}-biphenyl-4-yl)-butyric acid] | 300 to 1000
Cc1noc(-c2ccc(-c3ccc(C4(CC(=O)O)CC4)cc3)cc2)c1CC(F)(F)CCc1ccccc1 [Compound 1-175, (1-{4′-[4-(2,2-Difluoro-4-phenyl-butyl)-3-methyl-isoxazol-5-yl]-biphenyl-4-yl}-cyclopropyl)-acetic acid] | < 300
Cc1noc(-c2ccc(-c3ccc(CC(=O)O)cc3)cc2)c1NC(C)CCc1cccc(C(F)(F)F)c1 (stereo not drawn) [Compound 1-181, (4′-{3-Methyl-4-[1-methyl-3-(3-trifluoromethyl-phenyl)-propylamino]-isoxazol-5-yl}-biphenyl-4-yl)-acetic acid] | 300 to 1000
Cc1noc(-c2ccc(-c3ccc(CC(=O)O)cc3)cc2)c1NC(C)CCc1cccc(Cl)c1 (stereo not drawn) [Compound 1-182, (4′-{4-[3-(3-Chloro-phenyl)-1-methyl-propylamino]-3-methyl-isoxazol-5-yl}-biphenyl-4-yl)-acetic acid] | < 300
Cc1noc(-c2ccc(-c3ccc(C4(CC(=O)O)CC4)cc3)cc2)c1NC(C)CCc1cccc(C(F)(F)F)c1 (stereo not drawn) [Compound 1-183, [1-(4′-{3-Methyl-4-[1-methyl-3-(3-trifluoromethyl-phenyl)-propylamino]-isoxazol-5-yl}-biphenyl-4-yl)-cyclopropyl]-acetic acid] | < 300
Cc1noc(-c2ccc(-c3ccc(C4(CC(=O)O)CC4)cc3)cc2)c1NC(C)CCc1cccc(Cl)c1 (stereo not drawn) [Compound 1-184, [1-(4′-{4-[3-(3-Chloro-phenyl)-1-methyl-propylamino]-3-methyl-isoxazol-5-yl}-biphenyl-4-yl)-cyclopropyl]-acetic acid] | < 300
Cc1noc(-c2ccc(-c3ccc(C4(CC(=O)O)CC4)cc3)cc2)c1NC(C)CCc1cccc(F)c1 (stereo not drawn) [Compound 1-185, [1-(4′-{4-[3-(3-Fluoro-phenyl)-1-methyl-propylamino]-3-methyl-isoxazol-5-yl}-biphenyl-4-yl)-cyclopropyl]-acetic acid] | < 300
Cc1noc(-c2ccc(-c3ccc(C4(C(=O)O)CC4)cc3)cc2)c1C(O)CN[C@H]1CCc2ccccc21 (stereo partly drawn) [Compound 1-187, 1-(4′-{4-[1-Hydroxy-2-((S)-indan-1-ylamino)-ethyl]-3-methyl-isoxazol-5-yl}-biphenyl-4-yl)-cyclopropanecarboxylic acid] | < 300
Cc1noc(-c2ccc(-c3ccc(C(Cc4ccccc4)C(=O)O)cc3)cc2)c1C(O)CCCc1ccccc1 (stereo not drawn) [Compound 1-188, 2-{4′-[4-(1-Hydroxy-4-phenyl-butyl)-3-methyl-isoxazol-5-yl]-biphenyl-4-yl}-3-phenyl-propionic acid] | < 300
Cc1noc(-c2ccc(-c3ccc(C4(C(=O)O)CC4)cc3)cc2)c1C(CO)NCc1ccccc1 (stereo not drawn) [Compound 1-189, 1-{4′-[4-(1-Benzylamino-2-hydroxy-ethyl)-3-methyl-isoxazol-5-yl]-biphenyl-4-yl}-cyclopropanecarboxylic acid] | < 300
Cc1noc(-c2ccc(-c3ccc(C4(C(=O)O)CC4)cc3)cc2)c1C(O)CN (stereo not drawn) [Compound 1-190, 1-{4′-[4-(2-Amino-1-hydroxy-ethyl)-3-methyl-isoxazol-5-yl]-biphenyl-4-yl}-cyclopropanecarboxylic acid] | < 300
Cc1noc(-c2ccc(-c3ccc(CCC(=O)O)cc3)cc2)c1CSCCc1ccccc1 [Compound 1-191, 3-[4′-(3-Methyl-4-phenethylsulfanylmethyl-isoxazol-5-yl)-biphenyl-4-yl]-propionic acid] | < 300
Cc1noc(-c2ccc(-c3ccc(CCC(=O)O)cc3)cc2)c1NC(C)CCc1cccc(C(F)(F)F)c1 (stereo not drawn) [Compound 1-192, 3-(4′-{3-Methyl-4-[1-methyl-3-(3-trifluoromethyl-phenyl)-propylamino]-isoxazol-5-yl}-biphenyl-4-yl)-propionic acid] | < 300
Cc1noc(-c2ccc(-c3ccc(CCC(=O)O)cc3)cc2)c1NC(C)CCc1cccc(Cl)c1 (stereo not drawn) [Compound 1-193, 3-(4′-{4-[3-(3-Chloro-phenyl)-1-methyl-propylamino]-3-methyl-isoxazol-5-yl}-biphenyl-4-yl)-propionic acid] | < 300
Cc1cnn(Cc2c(C)noc2-c2ccc(-c3ccc(C4(C(=O)O)CC4)cc3)cc2)c1 [Compound 1-194, 1-{4′-[3-Methyl-4-(4-methyl-pyrazol-1-ylmethyl)-isoxazol-5-yl]-biphenyl-4-yl}-cyclopropanecarboxylic acid] | 1000 to 50000
Cc1ccc2nc(NCc3c(C)noc3-c3ccc(-c4ccc(C5(C(=O)O)CC5)cc4)cc3)sc2c1 [Compound 1-195, 1-(4′-{3-Methyl-4-[(6-methyl-benzothiazol-2-ylamino)-methyl]-isoxazol-5-yl}-biphenyl-4-yl)-cyclopropanecarboxylic acid] | 1000 to 50000
Cc1noc(-c2ccc(-c3ccc(C4(C(=O)O)CC4)cc3)cc2)c1Cn1cc(Br)cn1 [Compound 1-196, 1-{4′-[4-(4-Bromo-pyrazol-1-ylmethyl)-3-methyl-isoxazol-5-yl]-biphenyl-4-yl}-cyclopropanecarboxylic acid] | 1000 to 50000
Cc1noc(-c2ccc(-c3ccc(CCC(=O)O)cc3)cc2)c1C(O)CCCc1ccccc1 (stereo not drawn) [Compound 1-197, 3-{4′-[4-(1-Hydroxy-4-phenyl-butyl)-3-methyl-isoxazol-5-yl]-biphenyl-4-yl}-propionic acid] | < 300
Cc1noc(-c2ccc(-c3cccc(CCC(=O)O)c3)cc2)c1C(O)CCCc1ccccc1 (stereo not drawn) [Compound 1-200, 3-{4′-[4-(1-Hydroxy-4-phenyl-butyl)-3-methyl-isoxazol-5-yl]-biphenyl-3-yl}-propionic acid] | < 300
Cc1noc(-c2ccc(-c3ccccc3CCC(=O)O)cc2)c1C(O)CCCc1ccccc1 (stereo not drawn) [Compound 1-201, 3-{4′-[4-(1-Hydroxy-4-phenyl-butyl)-3-methyl-isoxazol-5-yl]-biphenyl-2-yl}-propionic acid] | 1000 to 50000
Cc1noc(-c2ccc(-c3ccc(C4(C(=O)O)CC4)cc3)cc2)c1C(=O)C[S+]([O-])Cc1ccccc1 (stereo not drawn) [Compound 1-202, 1-{4′-[3-Methyl-4-(2-phenylmethanesulfinyl-acetyl)-isoxazol-5-yl]-biphenyl-4-yl}-cyclopropanecarboxylic acid] | 1000 to 50000
Cc1noc(-c2ccc(-c3ccccc3C3(C(=O)O)CC3)cc2)c1C(O)CCCc1ccccc1 (stereo not drawn) [Compound 1-203, 1-{4′-[4-(1-Hydroxy-4-phenyl-butyl)-3-methyl-isoxazol-5-yl]-biphenyl-2-yl}-cyclopropanecarboxylic acid] | 1000 to 50000
